The results in this text go back to patent publication EP0167710A1, “Use of benomyl for the manufacture of a medicament against ichthyophthyriasis” (Eduro World Investments Inc., priority 1984, dated 1986).

The structures appear in SMILES notation.

Test [1] deals with Ichthiophthyriasis auslösenden Parasiten. As to the kind of experiment: Treatment of Ichthyophthyriasis-infected fish in aquaria (Beispiel 1). Format: in vivo. The note with it: 6 days after start of treatment, 16 Sumatrabarben per 40 Liter tank, Benomyl 0,2 mg/ml, Malachitgrün 0,03 mg/ml, repeated at half dose after 3 bis 5 Tagen; for Ausfälle: 25 + 1°C. The protocol: (§1) Unter gleichen Bedingungen wurden in drei Fischbehältern A, B und C (40 Liter) je 16 Sumatrabarben ausgesetzt. Die Wassertemperatur betrug 25 + 1°C. Nach eintägiger Haltung wurden die Fische in Kontakt mit Ichthiophthyriasis auslösenden Parasiten gebracht. Nach visuell sichtbarer Infektion wurden zugesetzt: • Im Aquarium A: Reines Wasser • Im Aquarium B: 1-(N-Butylcarbamoyl)-2-(methoxycarbonyl-amino)-benzimidazol (als pulverförmiges Gemisch. Konzentration an Wirkstoff 0,2 mg/ml) • Im Aquarium C: Malachitgrün (Wirkstoffkonzentrat-0,03 mg/ml)
(§2) Die Zugabe wurde mit der halben Dosierung nach 3 bis 5 Tagen wiederholt.

For test [2] the test system is unchanged. As to the kind of experiment: Treatment of Ichthyophthyriasis-infected fish in aquaria (Beispiel 2). Format: in vivo. The conditions noted are these: after 7 Behandlungstagen; 18 Neonsalmler per tank; conditions of Beispiel 1, repeat dose equal to the initial dose. The protocol:
as §1, §2
Unter den Bedingungen des Beispiels 1 wurden jeweils 18 Neonsalmler behandelt. Die Nachdosierung erfolgte jedoch in Höhe der Anfangsdosierung.

For `CCCCNC(=O)n1c(NC(=O)OC)nc2ccccc21` [Benomyl], in test [1], the Ausfälle is recorded as 2 Tieren pro Becken and the Schuppenbild result is “normalisiert”. Moreover, in test [2], the Ausfälle entry is given as “Keine Ausfälle”.

For the compound `CN(C)c1ccc(C(=C2C=CC(=[N+](C)C)C=C2)c2ccccc2)cc1` [Malachitgrün], the Ausfälle is 2 Tieren pro Becken in test [1] and “Ein Ausfall” in test [2]. The Schuppenbild result in test [1] is “normalisiert”.
